The values that follow come from patent US20070149508A1, “Six membered heteroaromatic inhibitors targeting resistant kinase mutations” (TargeGen, Inc., priority 2005, published 2007).

As usually defined, the IC50 is the concentration that gives 50% inhibition. Read a high IC50 as weaker potency.

Molecules are shown by their SMILES. Structures can show the parent of a compound that is named as a salt.

For assay [1], the target named is T1, Abl (T315I) (Homo sapiens, UniProt P00519, T315I).
T1 construct: purchased Upstate
As to the kind of experiment: Abl (T315I) Kinase Assay (KinaseGlo luminescent detection of residual ATP). It is filed as biochemical. As to conditions: Abl (T315I) IC50 (nM), Abl (T315I) (Upstate, 17 ng/well), Abltide 100 uM, ATP 500 nM, 60 minutes at 37° C. As for the experimental part: The assay was performed similarly to the Abl kinase assay. Abl (T315I) (Upstate, 17 ng/well); Abltide substrate (100 uM) and ATP (500 nM) comprised the reaction mixture. Compound was similarly diluted, and the reaction plate was incubated for 60 minutes at 37° C.
(Kinase-Glo reads ATP consumption through a luciferase reaction.)

Assay [2] concerns the target Abl kinase (Homo sapiens, UniProt P00519). The experiment in a line: biochemical. As to conditions: Abl IC50 (nM), Abl kinase (Invitrogen, 20 ng/well), Abltide 100 μM, ATP 500 nM, 37° C. for 60 minutes, top concentration 10 uM.
Method: Kinase activity was assessed using luminescent detection (KinaseGlo, Promega) of residual ATP concentration in reaction mixtures containing optimized levels of kinase, substrate, ATP, compound and appropriate buffers. Kinase, substrate and ATP concentrations were determined per the supplier's recommendations. Briefly, this involved running concentration curves to select for optimal signal.
The reaction mixture (50 ul/well) consisted of Abl kinase (Invitrogen, 20 ng/well); Abltide peptide substrate (Upstate, 100 μM) and ATP (500 nM). Each compound was evaluated at a top concentration of 10 uM with 1:3 dilution steps, 10 dilution steps total. Compound was diluted into DMSO and transferred to the reaction plate, resulting in a final DMSO concentration of 2%. This amount of DMSO was determined not to interfere with the enzyme. The reaction was conducted at 37° C. for 60 minutes. The degree of inhibition was assessed using IC50 determinations, which were obtained using GraphPad Prism4.

`NC1Cc2ccc(/C=C/c3cnc(Nc4ccc(S(=O)(=O)N5CCC(CO)CC5)cc4)nc3)cc2C1` (stereo not shown) [[1-(4-{5-[2-(2-Amino-indan-5-yl)-vinyl]-pyrimidin-2-ylamino}-benzenesulfonyl)-piperidin-4-yl]-methanol]: the IC50 stood at 2790 nM in assay [1] and 13700 nM in assay [2].
Consider `O=C1Cc2c(/C=C/c3cnc(Nc4ccc(S(=O)(=O)C5CCNCC5)cc4)nc3)cccc2N1` [4-(2-{2-[4-(Piperidine-4-sulfonyl)-phenylamino]-pyrimidin-5-yl}-vinyl)-1,3-dihydro-indol-2-one, hydrogen chloride], for which the IC50 in assay [1] was determined as 2270 nM; in assay [2], 127 nM.
As to `Nc1nc2ccc(/C=C/c3cnc(Nc4ccc(S(=O)(=O)NC5CCNCC5)cc4)nc3)cc2s1` [4-{5-[2-(2-Amino-benzothiazol-6-yl)-vinyl]-piperidin-4-yl-benzenesulfonamide], the IC50 stood at 29 nM in assay [1] and 47 nM in assay [2].
Turning to `O=S(=O)(NCCO)c1ccc(Nc2ncc(/C=C/c3ccccc3)cn2)cc1N1CCNCC1` [N-(2-hydroxyethyl)-4-({5-[(E)-2-phenylvinyl]pyrimidin-2-yl}amino)-2-piperazin-1-ylbenzenesulfonamide trifluoroacetic acid salt], the IC50 in assay [1] came to 7340 nM; in assay [2], 406 nM.
`CN(C)CCN(C1CCNCC1)S(=O)(=O)c1ccc(Nc2ncc(/C=C/c3ccc4nc(N)sc4c3)cn2)cc1` [4-({5-[(E)-2-(2-amino-1,3-benzothiazol-6-yl)vinyl}pyrimidin-2-yl}amino)-N-[2-(dimethylamino)ethyl]-N-piperidin-4-ylbenzenesulfonamide]: the IC50 came out at 38 nM in assay [1] and 109 nM in assay [2].
Regarding `O=S(=O)(c1ccc(Nc2ncc(/C=C/c3cccc4[nH]ccc34)cn2)cc1)N(CCO)C1CCNCC1` [N-(2-hydroxyethyl)-4-({5-[(E)-2-(1H-indol-4-yl)vinyl]pyrimidin-2-yl}amino)-N-piperidin-4-ylbenzenesulfonamide], the results for the IC50 in assay [1] and in assay [2] were 728 nM and 430 nM, respectively.
For `C(=C\c1cccc2[nH]ncc12)/c1cnc(Nc2ccc(OC3CCNCC3)cc2)nc1` [5-[(E)-2-(1H-indazol-4-yl)vinyl]-N-[4-(piperidin-4-yloxy)phenyl]pyrimidin-2-amine trifluoroacetic acid salt] the same measures were 169 nM and 7.9 nM.
Consider `O=C(Nc1cn2cc(/C=C/c3cnc(Nc4ccc(S(=O)(=O)C5CCNCC5)cc4)nc3)ccc2n1)C(F)(F)F` [2,2,2-Trifluoro-N-{6-[(E)-2-(2-{[4-(piperidin-4-ylsulfonyl)phenyl]amino}pyrimidin-5-yl)vinyl]imidazolo[1,2-a]pyridin-2-yl}acetamide trifluoroacetic acid salt], for which the IC50 in assay [1] stood at 475 nM; in assay [2], 1130 nM.
As for `C[C@H](N)C(=O)N1CCC(S(=O)(=O)c2ccc(Nc3ncc(/C=C/c4cccc5[nH]ccc45)cn3)cc2)CC1` [(S)-1-(4-(4-(5-((E)-2-(1H-indol-4-yl)vinyl)pyrimidin-2-ylamino)phenylsulfonyl)piperidin-1-yl)-2-aminopropan-1-one hydrochloride], the IC50 in assay [1] was found to be 464 nM; in assay [2], 43 nM.
Turning to `O=S(=O)(c1ccc(Nc2ncc(/C=C/c3ccc4[nH]nnc4c3)cn2)cc1)C1CCNCC1` [5-((E)-2-(1H-benzo[d][1,2,3]triazol-5-yl)vinyl)-N-(4-(piperidin-4-ylsulfonyl)phenyl)pyrimidin-2-amine], the figures for the IC50 in assay [1] and in assay [2] were 467 nM and 75 nM, respectively.
Taken in the same sequence, the figures for `O=S(=O)(c1ccc(Nc2ncc(/C=C/c3cccc(O)c3)cn2)cc1C(F)(F)F)N1CCNCC1` [3-(2-{2-[4-(Piperazine-1-sulfonyl)-3-trifluoromethyl-phenylamino]-pyrimidin-5-yl}-vinyl)-phenol] were 1410 nM and 222 nM.
For the compound `NC1CCN(S(=O)(=O)c2ccc(Nc3ncc(/C=C/c4cccc5[nH]ccc45)cn3)cc2)CC1` [N-{4-[(4-aminopiperidin-1-yl)sulfonyl]phenyl}-5-[(E)-2-(1H-indol-4-yl)vinyl]pyrimidin-2-amine], the results for the IC50 in assay [1] and in assay [2] were 347 nM and 13 nM, respectively.
Regarding `O=C(Nc1nc2ccc(/C=C/c3cnc(Nc4ccc(S(=O)(=O)C5CCNCC5)cc4)nc3)cc2s1)c1cccc(F)c1` [N-(6-((E)-2-(2-(4-(piperidin-4-ylsulfonyl)phenylamino)pyrimidin-5-yl)vinyl)benzo[d]thiazol-2-yl)-3-fluorobenzamide Hydrochloride], the IC50 in assay [1] worked out at 2740 nM; in assay [2] it was 629 nM.
Taken in the same sequence, the figures for `O=S(=O)(c1ccc(Nc2ncc(/C=C/c3ccc(F)c4[nH]ccc34)cn2)cc1)C1CCNCC1` [5-((E)-2-(7-fluoro-1H-indol-4-yl)vinyl)-N-(4-(piperidin-ylsulfonyl)phenyl)pyrimidin-2-amine Hydrochloride] were 149 nM and 8 nM.
As to `O=S(=O)(c1ccc(Nc2ncc(/C=C/c3ccc4c(c3)CC/C4=N/O)cn2)cc1)C1CCNCC1` [5-(2-{2-[4-(Piperidine-4-sulfonyl)-phenylamino]-pyrimidin-5-yl}-vinyl)-indan-1-one oxime], the IC50 in assay [1] came to 3650 nM; in assay [2], 593 nM.
Taken in the same sequence, the figures for `Cc1nc(Nc2ccc(S(=O)(=O)C3CCNCC3)cc2)ncc1/C=C/c1cccc(O)c1` [3-((E)-2-(2-(4-(piperidin-4-ylsulfonyl)phenylamino)-4-methylpyrimidin-5-yl)vinyl)phenol hydrochloride] were 65 nM and 10 nM.
Taken in the same sequence, the figures for `O=S(=O)(c1ccc(Nc2ncc(/C=C/c3cc(Cl)cc4[nH]nnc34)cn2)cc1)N1CCCNCC1` [[4-([1,4]Diazepane-1-sulfonyl)-phenyl]-{5-[2-(6-chloro-1H-benzotriazol-4-yl)-vinyl]-pyrimidin-2-yl}-amine] were 16 nM and 41 nM.
With `O=S(=O)(c1ccc(Nc2ncc(/C=C/c3cccc4[nH]ncc34)cn2)cc1)N1CCCNCC1` [[4-([1,4]Diazepane-1-sulfonyl)-phenyl]-{5-[2-(1H-indazol-4-yl)-vinyl]-pyrimidin-2-yl}-amine], the half-maximal inhibitory concentration (IC50) was determined as 184 nM in assay [1] and 12 nM in assay [2].
Taken in the same sequence, the figures for `C=Cc1cnc(Nc2ccc(S(=O)(=O)N3CCNCC3)c(N3CCNCC3)c2)nc1` [N-[3-piperazin-1-yl-4-(piperazin-1-ylsulfonyl)phenyl]-5-vinylpyrimidin-2-amine trifluoroacetic acid salt] were 4640 nM and 22200 nM.
With `Nc1cccc(/C=C/c2cnc(Nc3ccc(S(=O)(=O)C4CCNCC4)cc3)nc2)n1` [5-((E)-2-(6-aminopyridin-2-yl)vinyl)-N-(4-(piperidin-4-ylsulfonyl)phenyl)pyrimidin-2-amine Hydrochloride], the results for the IC50 in assay [1] and in assay [2] were 1210 nM and 56 nM, respectively.
For `Nc1nc2ccc(/C=C/c3cnc(Nc4ccc(S(=O)(=O)N5CCC(N)CC5)cc4)nc3)cc2s1` [6-{(E)-2-[2-({4-[(4-aminopiperidin-1-yl)sulfonyl]phenyl}amino)pyrimidin-5-yl]vinyl}-1,3-benzothiazol-2-amine] the same measures were 21 nM and 42 nM.
With `C(=C\c1cccc2[nH]ccc12)/c1cnc(Nc2ccc(OC3CCNCC3)cc2)nc1` [5-[(E)-2-(1H-indol-4-yl)vinyl]-N-[4-(piperidin-4-yloxy)phenyl]pyrimidin-2-amine trifluoroacetic acid salt], the IC50 was 820 nM in assay [1] and 21 nM in assay [2].
For `NS(=O)(=O)c1cccc(/C=C/c2cnc(Nc3ccc(S(=O)(=O)N4CCCNCC4)cc3)nc2)c1` [3-(2-{2-[4-([1,4]Diazepane-1-sulfonyl)-phenylamino]-pyrimidin-5-yl}-vinyl)-benzenesulfonamide] the same measures were 2440 nM and 781 nM.
For `O=S(=O)(c1ccc(Nc2ncc(/C=C/c3cc(F)cc4[nH]nnc34)cn2)cc1)C1CCNCC1` [5-((E)-2-(6-fluoro-1H-benzo[d][1,2,3]triazol-4-yl)vinyl)-N-(4-(piperidin-4-ylsulfonyl)phenyl)pyrimidin-2-amine trifluoroacetate], the IC50 in assay [1] is 12 nM; in assay [2], 7.2 nM.
For the compound `O=S(=O)(NCCN1CCCC1)c1ccc(Nc2ncc(/C=C/c3cccc4[nH]ncc34)cn2)cc1` [4-{5-[2-(1H-Indazol-4-yl)-vinyl]-pyrimidin-2-ylamino}-N-(2-pyrrolidin-1-yl-ethyl)-benzenesulfonamide], the IC50 in assay [1] is 133 nM; in assay [2], 7.6 nM.
For `Nc1nc2ccc(/C=C/c3cnc(Nc4ccc(S(=O)(=O)N(CCO)C5CCNCC5)cc4)nc3)cc2s1` [4-({5-[(E)-2-(2-amino-1,3-benzothiazol-6-vinyl]pyrimidin-2-yl}amino)-N-(2-hydroxyethyl)-N-piperidin-4-ylbenzenesulfonamide] the same measures were 33 nM and 84 nM.
For the compound `O=S(=O)(c1ccc(Nc2ncc(/C=C/c3ccnc4[nH]ccc34)cn2)cc1)C1CCNCC1` [N-[4-(piperidin-4-ylsulfonyl)phenyl]-5-[(E)-2-(1H-pyrrolo[2,3-b]pyridin-4-yl)vinyl]pyrimidin-2-amine], the values for the IC50 in assay [1] and in assay [2] were 163 nM and 38 nM, respectively.
For `O=S(=O)(c1ccc(Nc2ncc(/C=C/c3ccc(-c4nnn[nH]4)cc3)cn2)cc1)C1CCNCC1` [5-((E)-4-(1H-tetrazol-5-ylsulfonyl)phenyl)pyrimidin-yl)styryl)-N-(4-(piperidin-4-2-amine hydrochloride] the same measures were 4180 nM and 3260 nM.
For `O=S(=O)(c1ccc(Nc2ncc(/C=C/c3cccc(O)c3)cn2)cc1)N1CCC(CCO)CC1` [3-[2-(2-{4-[4-(2-Hydroxy-ethyl)-piperidine-1-sulfonyl]-phenylamino}-pyrimidin-5-yl)-vinyl]-phenol] the same measures were 160 nM and 18 nM.
